Among the data in US20070270418A1, “Inhibitors of P38 and Methods of Using the Same” (priority 2003, published 2007) are IC50 values, retold here.

Holding throughout (type): biochemical
For one test, the target named is T1, p38γ (Homo sapiens, UniProt P53778).
T1 construct: p38 MAP Kinases are recombinant human full-length proteins with an amino-terminal GST fusion; GST (N); purchased Upstate (Charlottesville, Va.); host or cells: E. coli
T1 sequence (P53778 1-367): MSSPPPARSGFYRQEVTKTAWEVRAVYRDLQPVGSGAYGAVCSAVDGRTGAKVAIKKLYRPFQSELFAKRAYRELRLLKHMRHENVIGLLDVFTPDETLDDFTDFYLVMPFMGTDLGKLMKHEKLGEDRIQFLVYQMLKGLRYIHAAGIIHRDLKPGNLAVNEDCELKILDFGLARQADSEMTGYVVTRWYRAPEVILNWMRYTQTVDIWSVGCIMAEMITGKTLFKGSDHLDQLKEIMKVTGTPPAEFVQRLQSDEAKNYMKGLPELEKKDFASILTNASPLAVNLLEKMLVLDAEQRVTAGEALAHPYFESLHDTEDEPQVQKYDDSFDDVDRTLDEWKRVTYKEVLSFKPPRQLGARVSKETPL
The test is described as follows: Kinase selectivity, ATF2 phosphorylation ELISA. The method, then: (§1) All kinases and the substrate ATF2 are acquired from Upstate (Charlottesville, Va.). p38 MAP Kinases are recombinant human full-length proteins with an amino-terminal GST fusion, expressed in and purified from E. coli. ATF2 is a GST fusion protein containing amino acids 19-96 of human ATF2 expressed in E. coli. All proteins were aliquoted and stored at −80° C.
(§2) p38 MAP Kinase assays are performed using an assay buffer containing 25 mM HEPES, pH 7.5, 10 mM MgCl2, 2 mM DTT, 20 mM β-glycerophosphate, 0.1 mM Na3VO4, 40 μM ATP and 1.25 μM of ATF2, together with 6 ng of p38α protein, 12 ng p38β protein, 1.5 ng p38γ, or 0.4 ng JNK2α2. Compounds are serially diluted in DMSO and 2 μL of test compound at 25× final concentration is used. The vehicle control receives DMSO only. Test compounds are pre-incubated with 20 μl of enzyme in kinase buffer (25 mM HEPES, pH 7.5, 10 mM MgCl2, 2 mM DTT, 20 mM 3-glycerophosphate and 0.1 mM Na3VO4) at room temperature for 15 minutes. […] The reactions are incubated for 30 minutes at 37° C. and terminated by the addition of 18 μl of 200 mM EDTA. An ELISA method is used to measure the phosphorylation of ATF2 at Thr 69. High binding 96-well plates (Corning 3369) are coated with 50 μl of kinase reaction for 1 hour at 37° C. The coated plates are washed with 200 μl washing buffer (25 mM Tris HCl, pH 8.3, 192 mM glycine, 0.1% SDS and 0.05% Tween-20) three times. The plates are then washed three times with SuperBlock in TBS (Pierce, 37535). After blocking, plates are incubated with 50 μl of rabbit anti-phospho-ATF2 antibody (Cell Signaling, 9221 L, 1:500) for 30 minutes at 37° C. Plates are washed three times with washing buffer prior to incubation with 50 μl HRP-conjugated goat anti-rabbit antibody (Cell Signaling, 7074, 1:500) for 30 minutes at 37° C. Plates are then washed three times with washing buffer before incubation with 50 μl of Ultra TMB-ELISA (Pierce, 34028) for 8 minutes at room temperature. Finally, 50 μl of phosphoric acid (1 M) is added to stop reactions and plate absorbance is read at 450 nm on a SpectraMax 250 plate reader.
(§3) A selectivity panel is used to test the cross-reactivity of compounds of the invention with the β and γ isoforms of p38 MAP kinase, Src^p60 and JNK2α2. The p38β, p38γ, and JNK2α2 assays are described in Example 4. The Src^p60 assay measures the ability of compounds to inhibit Src^p60-catalyzed phosphorylation of a peptide substrate.

For the next test, the target named is T2, JNK2α2 (Homo sapiens, UniProt P45984).
T2 construct: purchased Upstate (Charlottesville, Va.)
The test is described as follows: Kinase selectivity, ATF2 phosphorylation ELISA. The method, then:
as §1, §2, §3
On the technique in general: ELISA stands for enzyme-linked immunosorbent assay.

The next test has as its target T3, Src^p60 (Homo sapiens, UniProt P12931).
T3 construct: purchased Upstate (Charlottesville, Va.)
Kind of test: Src^p60 peptide phosphorylation, time resolved fluorescence. The method, then:
as §3
Compounds are serially diluted in DMSO and 1 μL of test compound at 25× final concentration is used. The vehicle control receives DMSO only. Test compounds are pre-incubated with 10 μL of water containing 5.3 units of Src^p60 enzyme (Upstate, Charlottesville, Va.) at room temperature for 15 minutes. […] The reactions are incubated for 1 hr at room temperature. Time resolved fluorescence is read at 665 and 615 nm using the Victor V program LANCE 615/665 on a Victor^2 V plate reader (Perkin Elmer Life Sciences).

Each structure is given as a SMILES string.

T2 sequence (P45984 whole entry): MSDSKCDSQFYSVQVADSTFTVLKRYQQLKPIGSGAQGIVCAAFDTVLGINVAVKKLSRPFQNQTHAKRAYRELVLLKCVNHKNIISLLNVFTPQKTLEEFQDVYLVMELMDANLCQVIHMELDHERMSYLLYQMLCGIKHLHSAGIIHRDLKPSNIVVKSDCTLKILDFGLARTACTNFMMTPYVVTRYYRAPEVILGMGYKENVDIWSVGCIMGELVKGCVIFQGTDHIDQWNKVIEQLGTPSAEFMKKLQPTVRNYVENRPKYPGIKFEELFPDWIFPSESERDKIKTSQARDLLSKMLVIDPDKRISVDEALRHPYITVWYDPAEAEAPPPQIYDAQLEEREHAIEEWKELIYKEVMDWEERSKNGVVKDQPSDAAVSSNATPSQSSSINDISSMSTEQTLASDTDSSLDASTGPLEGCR
T3 sequence (P12931 whole entry): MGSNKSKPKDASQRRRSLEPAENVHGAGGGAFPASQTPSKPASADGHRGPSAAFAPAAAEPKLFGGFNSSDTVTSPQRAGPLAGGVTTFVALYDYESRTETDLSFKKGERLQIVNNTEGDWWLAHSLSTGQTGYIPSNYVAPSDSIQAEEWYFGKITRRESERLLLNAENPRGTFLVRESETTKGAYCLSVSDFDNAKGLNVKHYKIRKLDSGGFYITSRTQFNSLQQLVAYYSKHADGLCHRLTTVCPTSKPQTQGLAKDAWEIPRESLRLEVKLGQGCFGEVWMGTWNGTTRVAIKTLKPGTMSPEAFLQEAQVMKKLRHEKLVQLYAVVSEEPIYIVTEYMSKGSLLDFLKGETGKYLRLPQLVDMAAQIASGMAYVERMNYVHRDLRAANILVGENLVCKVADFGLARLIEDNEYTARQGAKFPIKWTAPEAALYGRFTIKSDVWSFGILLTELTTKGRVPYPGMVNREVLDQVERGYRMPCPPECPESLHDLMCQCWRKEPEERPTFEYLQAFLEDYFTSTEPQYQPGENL

As to `Fc1ccc(-c2nc3occn3c2-c2ccnc(NC3CN4CCC3CC4)n2)cc1` (stereo not drawn) [LXXXIV], the IC50 (commonly the point on the concentration scale where inhibition reaches its midpoint) is > 81.3 µM at p38γ, 2.26 µM at JNK2α2 and > 29.5 µM against Src^p60.

Regarding `CS(=O)(=O)N1CCC(Nc2nccc(-c3c(-c4ccc(F)cc4)nc4occn34)n2)CC1` [CCLXXIX], the IC50 at p38γ was > 100 µM; at JNK2α2, 0.0233 µM; against Src^p60 it was > 64 µM.

As to `CN1[C@@H]2CC[C@H]1C[C@@H](Nc1nccc(-c3c(-c4ccc(F)cc4)nc4occn34)n1)C2` [CCLXXXI], the IC50 against p38γ was > 100 µM; at JNK2α2 it was 0.762 µM; on Src^p60, > 9.03 µM.

On to `Fc1ccc(-c2nc3occn3c2-c2ccnc(N[C@H]3CN4CCC3CC4)n2)cc1` [LXXXVII], for which the IC50 against p38γ was 59.5 µM; against JNK2α2 it was 1.04 µM; against Src^p60, 25.9 µM.

Turning to `Fc1ccc(-c2nc3occn3c2-c2ccnc(N[C@@H]3CN4CCC3CC4)n2)cc1` [LXXI], the IC50 against p38γ is > 519 µM; against JNK2α2 it was 1.59 µM; against Src^p60 it was 12.9 µM.
